# Patent US11964980B2, “Crystalline forms of (S)-1-(4-fluorophenyl)-1-(2-(4-(6-(1-methyl-1H-pyrazol-4-yl)pyrrolo[2,1- f][1,2,4]triazin-4-yl)piperazinyl)-pyrimidin-5-yl)ethan-1-amine and methods of making” (Blueprint Medicines Corporation, priority 2019, dated 2024)
# Entries after “also recorded” stand apart in the source; their conditions may differ.
# Assays:
# Format in all cases: in vivo, human
# [1] = system: patients with indolent systemic mastocytosis; assay: Phase 2 PIONEER trial Part 1: ISM-SAF symptom scores and MC-QoL
# Experimental: (§1) This is a Phase 2, randomized, double-blind, placebo-controlled study comparing the efficacy and safety of Compound (I)+best supportive care (BSC) with placebo+BSC in patients with ISM and SSM whose symptoms are not adequately controlled by BSC. The study is conducted in three parts. In Part 1, the optimal dose Compound (I) (recommended phase 2 dose (RP2D)) was identified in patients with ISM. In Part 2, patients with ISM and SSM are randomly assigned to the RP2D of Compound (I) identified in Part 1+BSC, or to matching placebo+BSC. In Part 3, patients who have completed treatment in Part 1 or Part 2 of the study participate in a long-term extension, receiving Compound (I) at the RP2D+BSC.
# In Part 1, immediately after informed consent was obtained, management of SM symptoms was optimized, and BSC medication doses and schedules for SM symptom management were stabilized, if needed, over four weeks. Within five days after informed consent is obtained, ISM-SAF (ISM Symptom Assessment Form) data collection begins. The number of anaphylactic episodes treated with epinephrine and all concomitant medications received for any indication were collected from the time of informed consent.
# (§2) Once BSC was optimized (between Day −98 and Day −71) and doses were stable for ≥14 days, ISM-SAF data was collected for an additional 14 days to determine eligibility based on symptom severity i.e., to identify ISM and SSM patients having moderate-to-severe symptoms. Patients not meeting the symptom severity threshold were deemed screen failures and were not eligible for study participation. Patients having moderate-to-severe symptoms and meeting the threshold for symptom severity began other screening procedures, including the following: Bone marrow (BM) biopsy (an archival sample obtained within the preceding 24 weeks or a fresh sample) and skin biopsy of lesional and nonlesional skin (in patients with cutaneous mastocytosis (CM)) were performed for confirmation of SM diagnosis and quantification of mast cells (MCs); patients with CM (maculopapular) had skin photographs taken. Additional procedures include: magnetic resonance imaging/computed tomography scan of the brain; bone densitometry; serum tryptase, KIT D816 mutation testing; routine laboratory testing; ECG; and physical examination. All procedures are completed within a 6-week period before the final 14-day collection of baseline ISM-SAF symptoms is initiated.
# Once screening procedures were completed, patients had ISM-SAF data collected for another 2 weeks (14 days) to establish baseline scores, after which patients meeting all eligibility requirements were randomly assigned to treatment and began dosing.
# (§3) In Part 1 of the study, approximately 40 patients were randomly assigned to 1 of 3 doses of Compound (I) or to placebo. Each dose-level cohort and placebo group in Part 1 was composed of 10 patients. The 3 dose levels of Compound (I) were tested in parallel: 25, 50, and 100 mg. Patients, study staff, and the Sponsor were blinded to treatment assignment.
# (§4) Compound (I) was administered orally, once a day in continuous 28-day cycles. Patients were assessed weekly for the first 4 weeks, then every 4 weeks (until the RP2D was determined) for safety, laboratory monitoring, and quality of life (QoL) assessments. Intensive pharmacokinetic (PK) sampling was performed in all patients. The ISM-SAF was completed once a day. After completion of 12 weeks of treatment, BM and skin biopsy were repeated for MC quantification and skin photographs were taken in patients with baseline CM.
# The RP2D was determined based on the efficacy, safety, and PK at each dose level. The primary evaluation of efficacy was the symptom improvement using the ISM-SAF. The primary criterion for selection of the RP2D was the dose of Compound (I) that produces the maximum reduction in total symptom score (TSS), as assessed using the ISM-SAF at Week 12 compared with Baseline (Day −14 to Day −1). […]
# [2] = system: patients with indolent systemic mastocytosis; assay: Phase 2 PIONEER trial Part 1: safety
# Experimental: as §1, §3, §4
# Part 1 of the PIONEER trial was designed to determine the RP2D by evaluating three doses of Compound (I) (25 mg, 50 mg and 100 mg QD) versus placebo. Key eligibility criteria include adults with ISM confirmed by central pathology review of bone marrow biopsy (according to WHO criteria) and moderate-to-severe symptom burden despite best supportive care medicines. Overall, 39 patients were enrolled in Part 1 across four concurrent cohorts, consisting of 10 patients each in the Compound (I) dose cohorts and nine patients in the placebo cohort.
# [3] = system: mast cell burden (serum tryptase, bone marrow mast cells, KIT D816V allele burden); assay: Phase 2 PIONEER trial Part 1: measures of mast cell burden
# Experimental: as §1
# as §2, with “Additional procedures include: magnetic resonance imaging/computed tomography scan of the brain; bone densitometry; serum tryptase, KIT D816 mutation testing; routine laboratory testing; ECG; and physical examination. All procedures are completed within a 6-week period before the final 14-day collection of baseline ISM-SAF symptoms is initiated.” left out
# as §4, with “Intensive pharmacokinetic (PK) sampling was performed in all patients. The ISM-SAF was completed once a day.” left out, “CM. […]” for “CM.”
compound,measurement,setting,value
"Cn1cc(-c2cc3c(N4CCN(c5ncc([C@@](C)(N)c6ccc(F)cc6)cn5)CC4)ncnn3c2)cn1 [Compound (I), (S)-1-(4-fluorophenyl)-1-(2-(4-(6-(1-methyl-1H-pyrazol-4-yl)pyrrolo[2,1-f][1,2,4]triazin-4-yl)piperazin-1-yl)pyrimidin-5-yl)ethan-1-amine]",Mean percent change in ISM-SAF TSS,"[1]; 25 mg QD (n = 9), at 16 weeks",−31%
same,Mean percent change in ISM-SAF gastrointestinal domain,"[1]; 25 mg QD (n = 9), at 16 weeks",−25%
same,Mean percent change in ISM-SAF neurological symptoms,"[1]; 25 mg QD (n = 9), at 16 weeks",−26%
same,Mean percent change in ISM-SAF skin domain,"[1]; 25 mg QD (n = 9), at 16 weeks",−37%
same,Mean reduction in total MC-QoL score,"[1]; 25 mg QD (seven patients), 16 weeks",34%
same,"Mean reduction in total symptom score (TSS), ISM-SAF","[1]; 25 mg QD, baseline to 16 weeks",31%
same,"Quality of life, MC-QoL overall score and domain scores","[1]; 25 mg QD, week 16",improvements in quality of life; also recorded: improvements in all four domains
same,Reduction in ISM-SAF TSS and each symptom in the total domain score,"[1]; 25 mg once daily, 16 weeks",statistically significant reduction
same,Mean improvement in ISM-SAF TSS,"[1]; across all Compound (I) dose cohorts, 16 weeks, p=0.001 vs placebo",approximately 30%
same,Grade of all adverse events reported,[2]; 25 mg QD dose cohort,Grade 1 or 2
same,"Patients with serious AEs, Grade 3 or higher AEs, or dose modifications",[2]; 25 mg QD dose cohort,No patients
same,Grade ≥3 AEs,[2]; 25 mg once daily cohort,No grade ≥3 AEs
same,% of subjects with ≥1 AE,"[2]; 25 mg, n = 10, any grade",100%
same,AE Bone Pain,"[2]; 25 mg, n = 10, any grade",0%
same,AE Diarrhea,"[2]; 25 mg, n = 10, any grade",0%
same,AE Dizziness,"[2]; 25 mg, n = 10, any grade",30%
same,AE Face edema,"[2]; 25 mg, n = 10, any grade",10%
same,AE Fatigue,"[2]; 25 mg, n = 10, any grade",40%
same,AE Headache,"[2]; 25 mg, n = 10, any grade",30%
same,AE Nausea,"[2]; 25 mg, n = 10, any grade",10%
same,AE Periorbital edema,"[2]; 25 mg, n = 10, any grade",0%
same,AE Peripheral edema,"[2]; 25 mg, n = 10, any grade",10%
same,% of subjects with ≥1 AE,"[2]; 25 mg, n = 10, grade 3",0%
same,AE Bone Pain,"[2]; 25 mg, n = 10, grade 3",0%
same,AE Diarrhea,"[2]; 25 mg, n = 10, grade 3",0%
same,AE Dizziness,"[2]; 25 mg, n = 10, grade 3",0%
same,AE Face edema,"[2]; 25 mg, n = 10, grade 3",0%
same,AE Fatigue,"[2]; 25 mg, n = 10, grade 3",0%
same,AE Headache,"[2]; 25 mg, n = 10, grade 3",0%
same,AE Nausea,"[2]; 25 mg, n = 10, grade 3",0%
same,AE Periorbital edema,"[2]; 25 mg, n = 10, grade 3",0%
same,AE Peripheral edema,"[2]; 25 mg, n = 10, grade 3",0%
same,% of subjects with ≥1 AE,"[2]; 50 mg, n = 10, any grade",80%
same,AE Bone Pain,"[2]; 50 mg, n = 10, any grade",0%
same,AE Diarrhea,"[2]; 50 mg, n = 10, any grade",40%
same,AE Dizziness,"[2]; 50 mg, n = 10, any grade",30%
same,AE Face edema,"[2]; 50 mg, n = 10, any grade",0%
same,AE Fatigue,"[2]; 50 mg, n = 10, any grade",10%
same,AE Headache,"[2]; 50 mg, n = 10, any grade",30%
same,AE Nausea,"[2]; 50 mg, n = 10, any grade",60%
same,AE Periorbital edema,"[2]; 50 mg, n = 10, any grade",20%
same,AE Peripheral edema,"[2]; 50 mg, n = 10, any grade",20%
same,% of subjects with ≥1 AE,"[2]; 50 mg, n = 10, grade 3",20%
same,AE Bone Pain,"[2]; 50 mg, n = 10, grade 3",0%
same,AE Diarrhea,"[2]; 50 mg, n = 10, grade 3",10%
same,AE Dizziness,"[2]; 50 mg, n = 10, grade 3",0%
same,AE Face edema,"[2]; 50 mg, n = 10, grade 3",0%
same,AE Fatigue,"[2]; 50 mg, n = 10, grade 3",0%
same,AE Headache,"[2]; 50 mg, n = 10, grade 3",10%
same,AE Nausea,"[2]; 50 mg, n = 10, grade 3",10%
same,AE Periorbital edema,"[2]; 50 mg, n = 10, grade 3",0%
same,AE Peripheral edema,"[2]; 50 mg, n = 10, grade 3",0%
same,% of subjects with ≥1 AE,"[2]; 100 mg, n = 10, any grade",90%
same,AE Bone Pain,"[2]; 100 mg, n = 10, any grade",0%
same,AE Diarrhea,"[2]; 100 mg, n = 10, any grade",30%
same,AE Dizziness,"[2]; 100 mg, n = 10, any grade",40%
same,AE Face edema,"[2]; 100 mg, n = 10, any grade",40%
same,AE Fatigue,"[2]; 100 mg, n = 10, any grade",10%
same,AE Headache,"[2]; 100 mg, n = 10, any grade",30%
same,AE Nausea,"[2]; 100 mg, n = 10, any grade",40%
same,AE Periorbital edema,"[2]; 100 mg, n = 10, any grade",30%
same,AE Peripheral edema,"[2]; 100 mg, n = 10, any grade",20%
same,% of subjects with ≥1 AE,"[2]; 100 mg, n = 10, grade 3",40%
same,AE Bone Pain,"[2]; 100 mg, n = 10, grade 3",0%
same,AE Diarrhea,"[2]; 100 mg, n = 10, grade 3",10%
same,AE Dizziness,"[2]; 100 mg, n = 10, grade 3",0%
same,AE Face edema,"[2]; 100 mg, n = 10, grade 3",0%
same,AE Fatigue,"[2]; 100 mg, n = 10, grade 3",0%
same,AE Headache,"[2]; 100 mg, n = 10, grade 3",10%
same,AE Nausea,"[2]; 100 mg, n = 10, grade 3",0%
same,AE Periorbital edema,"[2]; 100 mg, n = 10, grade 3",0%
same,AE Peripheral edema,"[2]; 100 mg, n = 10, grade 3",0%
same,Tolerability,"[2]; all doses (25, 50, 100 mg QD)",well-tolerated
same,Discontinuation of treatment due to AEs,"[2]; all doses, as of data cutoff",no discontinuations for adverse effects; also recorded: no patients discontinued treatment due to AEs
same,Blood KIT D816V allele fraction,"[3]; 25 mg QD, similar to 50 mg and 100 mg QD",significant reduction
same,"Serum tryptase, mast cell burden and KIT D816V allele burden","[3]; 25 mg once daily, ISM patients, vs placebo, FIG. 13",significant reductions; also recorded: robust reductions; also recorded: robust declines
same,KIT D816V allele burden,"[3]; all dose cohorts (25, 50, 100 mg once daily), ISM patients, FIG. 12",significant decreases
